Laboratory results as given in patent US9834541B2, “2-aminopyridine compounds” (Merck Patent GmbH, priority 2012, dated 2017).

Legend:
Wnt pathway [1] = test: Cellular assay for Wnt pathway activity, LS174T-shl-fLuc clone 5 (LS174T-L5) luciferase reporter assay; assay type: cell-based; conditions: Homo sapiens; LS174T TCF luciferase reporter cells, 24 hours incubation
How it was run: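 LS174T human colon cancer cells stably carrying a 16×TCF/LEF-driven short-half-life firefly luciferase reporter were treated with compounds at 30 μM to 1 nM for 24 hours. Luciferase luminescence normalized to vehicle control; IC50 from curve fitting.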

[2] = CLint (intrinsic clearance) assay, liver microsomal incubation; assay type: in vitro ADME, human; conditions: for microsomal CLint at 0.8 μM: liver microsomes, pH 7.4, human hepatic microsomes, 0.5 mg/mL protein, class symbols
How it was run: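 Human liver microsomes (0.5 mg/mL protein) in 0.1 M potassium phosphate pH 7.4 with 1 mM MgCl2 were incubated at 37 °C with NADPH and compound (diluted to 0.8 μM), with no-cofactor controls. Samples were acetonitrile-quenched at 0–30 min. CLint (μL/min/mg protein) = k·1000/protein concentration, from the LC-MS/MS peak-area decline slope.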

Wnt pathway [3] = conditions: see Table A on page 93 of WO 2010/041054; cited from earlier work

Structure (SMILES)	IC50 (Wnt pathway [1]) [nM]	microsomal CLint at 0.8 μM [2] [µL/min/mg]	human hepatic microsomal intrinsic clearance (CLint), in words ([2]; statement in the related-art section)	inhibitory activity, in words (Wnt pathway [3])
CCN1c2ccc(-c3cnc(N)c(Cl)c3N3CCC4(CCNC4=O)CC3)cc2CS1(=O)=O [Compound 58, 8-[2-Amino-3-chloro-5-(1-ethyl-2,2-dioxo-2,3-dihydro-1H-2I6-benzo[c]isothiazol-5-yl)-pyridin-4-yl]-2,8-diaza-spiro[4.5] decan-1-one]	7.6	≥ 150		
CN1c2ccc(-c3cnc(N)c(F)c3N3CCC4(CC3)CNC(=O)O4)cc2CS1(=O)=O [Compound 60, 8-[2-Amino-3-fluoro-5-(1-methyl-2,2-dioxo-2,3-dihydro-1H-2l6-benzo[c]isothiazol-5-yl)-pyridin-4-yl]-1-oxa-3,8-diaza-spiro[4.5]decan-2-one]	103	< 10		
CN1c2ccc(-c3cnc(N)c(F)c3N3CCC4(CCNC4=O)CC3)cc2CS1(=O)=O [Compound 61, 8-[2-Amino-3-fluoro-5-(1-methyl-2,2-dioxo-2,3-dihydro-1H-2l6-benzo[c]isothiazol-5-yl)-pyridin-4-yl]-2,8-diaza-spiro[4.5]decan-1-one]	60.1	10 to 50		
Nc1ncc(-c2ccc3c(c2)CCS3(=O)=O)c(N2CCC3(CCNC3=O)CC2)c1Cl [Compound 62, 8-[2-Amino-3-chloro-5-(1,1-dioxo-2,3-dihydro-1H-1I6-benzo[b]thiophen-5-yl)-pyridin-4-yl]-2,8-diaza-spiro[4.5] decan-1-one]	450	10 to 50		
CN1c2ccc(-c3cnc(N)c(Cl)c3N3CC[C@H](C#N)[C@@H](O)C3)cc2CS1(=O)=O [Compound 65, (3R,4R)-2′-Amino-3′-chloro-3-hydroxy-5′-(1-methyl-2,2-dioxo-2,3-dihydro-1H-2I6-benzo[c]isothiazol-5-yl)-3,4,5,6-tetrahydro-2H-[1,4′] bipyridinyl-4-carbonitrile]	14	10 to 50		
CN1c2ccc(-c3cnc(N)c(Cl)c3N3CC[C@@H](C#N)[C@H](O)C3)cc2CS1(=O)=O [Compound 66, (3S,4S)-2′-Amino-3′-chloro-3-hydroxy-5′-(1-methyl-2,2-dioxo-2,3-dihydro-1H-2I6-benzo[c]isothiazol-5-yl)-3,4,5,6-tetrahydro-2H-[1,4′] bipyridinyl-4-carbonitrile]	403	10 to 50		
O=C1NCCC12CCN(c1c(Cl)cncc1-c1ccccc1)CC2 [Compound E60, 8-(3-Chloro-5-phenyl-pyridin-4-yl)-2,8-diaza-spiro[4.5]decan-1-one, reference compound]	230	≥ 150	high	promising

Continued, in another order:

IC50 (Wnt pathway [1]) [nM]	microsomal CLint at 0.8 μM [2] [µL/min/mg]	human hepatic microsomal intrinsic clearance (CLint), in words ([2]; statement in the related-art section)	Structure (SMILES)	inhibitory activity, in words (Wnt pathway [3])
45	10 to 50		CS(=O)(=O)CCn1cc(-c2ccc(-c3cnc(N)c(Cl)c3N3CCC4(CCNC4=O)CC3)cc2)cn1 [Compound 59, 8-(2-Amino-3-chloro-5-{4-[1-(2-methanesulfonyl-ethyl)-1H-pyrazol-4-yl]-phenyl}-pyridin-4-yl)-2,8-diaza-spiro[4.5] decan-1-one]	
237	10 to 50		Cn1cc(-c2ccc(-c3cnc(N)c(F)c3N3CCC4(CC3)CNC(=O)O4)cc2)cn1 [Compound 63, 8-{2-Amino-3-fluoro-5-[4-(1-methyl-1H-pyrazol-4-yl)-phenyl]-pyridin-4-yl}-1-oxa-3,8-diaza-spiro[4.5] decan-2-one]	
644	10 to 50		Cn1ncc2cc(-c3cnc(N)c(F)c3N3CCC4(CCNC4=O)CC3)ccc21 [Compound 64, 8-[2-Amino-3-fluoro-5-(1-methyl-1H-indazol-5-yl)-pyridin-4-yl]-2,8-diaza-spiro[4.5] decan-1-one]	
49	10 to 50		CC(C)(O)Cn1cc(-c2ccc(-c3cnc(N)c(Cl)c3N3CCC4(CCNC4=O)CC3)cc2)cn1 [Compound 67, 8-(2-Amino-3-chloro-5-{4-[1-(2-hydroxy-2-methyl-propyl)-1H-pyrazol-4-yl]-phenyl}-pyridin-4-yl)-2,8-diaza-spiro[4.5] decan-1-one]	
59	< 10		CCN1Cc2cc(-c3cnc(N)c(Cl)c3N3CCC4(CCNC4=O)CC3)ccc2S1(=O)=O [Compound 68, 8-[2-Amino-3-chloro-5-(2-ethyl-1,1-dioxo-2,3-dihydro-1H-1l6-benzo[d]isothiazol-5-yl)-pyridin-4-yl]-2,8-diaza-spiro[4.5]decan-1-one]	
52	50 to 100		CC(C)n1cc(-c2ccc(-c3cnc(N)c(Cl)c3N3CCC4(CCNC4=O)CC3)cc2)cn1 [Compound 69, 8-{2-Amino-3-chloro-5-[4-(1-isopropyl-1H-pyrazol-4-yl)-phenyl]-pyridin-4-yl}-2,8-diaza-spiro[4.5] decan-1-one]	
23	≥ 150		CCn1cc(-c2ccc(-c3cnc(N)c(Cl)c3N3CCC4(CCNC4=O)CC3)cc2)cn1 [Compound 70, 8-{2-Amino-3-chloro-5-[4-(1-ethyl-1H-pyrazol-4-yl)-phenyl]-pyridin-4-yl}-2,8-diaza-spiro[4.5] decan-1-one]	
181	10 to 50		CCn1ncc2ccc(-c3cnc(N)c(Cl)c3N3CCC4(CCNC4=O)CC3)cc21 [Compound 71, 8-[2-Amino-3-chloro-5-(1-ethyl-1H-indazol-6-yl)-pyridin-4-yl]-2,8-diaza-spiro[4.5] decan-1-one]	
155	100 to 150		CCn1ncc2cc(-c3cnc(N)c(Cl)c3N3CCC4(CCNC4=O)CC3)ccc21 [Compound 72, 8-[2-Amino-3-chloro-5-(1-ethyl-1H-indazol-5-yl)-pyridin-4-yl]-2,8-diaza-spiro[4.5] decan-1-one]	
54	100 to 150		CC(C)n1ncc2ccc(-c3cnc(N)c(Cl)c3N3CCC4(CCNC4=O)CC3)cc21 [Compound 73, 8-[2-Amino-3-chloro-5-(1-isopropyl-1H-indazol-6-yl)-pyridin-4-yl]-2,8-diaza-spiro[4.5] decan-1-one]	
